Measured values: paper PMC6155332, “Antimalarials with Benzothiophene Moieties as Aminoquinoline Partners” (Molecules : A Journal of Synthetic Chemistry and Natural …, 2017)
Several values for one entry are separate records, joined by “and”; a condition that tells them apart may be missing. Equal entries are not always repeated.

What was measured:
[1] = test system: P. falciparum W2 (CQ resistant (CQR) strain); assay: microbe, parasite or virus in culture; format: cell-based, Plasmodium falciparum; details: for IC50: Plasmodium falciparum, W2, read-out: In Vitro Antimalarial Activity (P. falciparum, IC50, nM) W2; for RI W2/D6 (resistance index): IC50 W2 / IC50 D6
[2] = test system: P. falciparum TM91C235 (Thailand, multidrug-resistant (MDR) strain); assay: Malaria SYBR Green Fluorescence Assay, TM91C235 strain; format: cell-based; details: Plasmodium falciparum, read-out: In Vitro Antimalarial Activity (P. falciparum, IC50, nM) C235
P. berghei (ANKA) = assay: Modified Thompson test, P. berghei mouse efficacy; format: in vivo, Plasmodium berghei; details: for Mean Survival Time (MST, Days) / Mice Alive on Day 31 / Mice Dead/Day Died: infected mice, 160 mg/kg/day p.o., days 3–5 postinfection; for Parasitemia D24: day 24
Description: In a separate host toxicity study, benzothiophene 25 was subjected to in vivo toxicity evaluation. […]
The P. berghei (ANKA) mouse efficacy tests were conducted using a modified version of the Thompson test. Groups of five mice were inoculated intraperitoneally with erythrocytes infected with P. berghei on day 0. Drugs were suspended in 0.5% hydroxyethylcellulose-0.1% Tween 80 and administered orally once a day beginning on day 3 post infection. […] Cure was defined as survival (with no parasitemia) until day 31 post-treatment. Parasitemia was determined by thin-blood Giemsa-stained smears prepared from mice tail blood of each animal on days 0, 3, 6, 10, 13, 17, 20, 24, 27, and 31 (postinfection). The slides were examined under a light microscope.

[3] = test system: P. falciparum D6 (CQ susceptible (CQS) strain); assay: Malaria SYBR Green Fluorescence Assay, D6 strain; format: cell-based; details: Plasmodium falciparum; CQ susceptible African D6 clone; read-out: In Vitro Antimalarial Activity (P. falciparum, IC50, nM) D6
[4] = test system: HepG2 (hepatocellular carcinoma) cell line; assay: Compound toxicity in HepG2 cell line; format: cell-based, human; details: for IC50: Homo sapiens, HepG2, hepatocellular carcinoma cells; for SI HepG2/D6 (selectivity index): IC50 HepG2 / IC50 D6
Description: To investigate possible toxicity issues, the synthesized compounds were evaluated in vitro against a human hepatoma cell line (HepG2).
Synthesized aminoquinolines were screened in vitro against P. falciparum strains: CQ and MFQ susceptible strain D6 (clone of Sierra Leone/UNC isolate), CQ resistant but MFQ susceptible strain W2 (clone of Indochina isolate), and CQ and MFQ resistant strain TM91C235 (clone of South East Asian isolate) using the Malaria SYBR Green Fluorescence Assay. Full method details are given in Supplementary Materials I. Assessment of compound toxicity in a HepG2 (hepatocellular carcinoma) cell line followed the protocol described in Ref. [40].

healthy mice = assay: Host toxicity study in healthy mice; format: in vivo; details: 160 mg/kg/day × 3 days; for Mice survived in host toxicity study: groups of 5 healthy mice; for Host toxicity (toxic / non-toxic): healthy mice, orally
Description: In a separate host toxicity study, groups of five healthy mice were administered 160 mg/kg/day × 3 days of the investigational compounds and individually monitored for behavior and appearance two times a day for 31 days. No toxicity was defined as survival past day 31 with no overt clinical manifestations of toxicity (changes in behavior and appearance).

Row | SMILES | IC50 [1] [nM] | IC50 [2] [nM] | Parasitemia D6-D31 (P. berghei (ANKA); 160 mg/kg/day p.o. days 3–5, days 6–31) [mice negative] | Mean Survival Time (MST, Days) (P. berghei (ANKA)) [days] | Mice Alive on Day 31 (P. berghei (ANKA)) | IC50 [3] [nM] | RI W2/D6 (resistance index) [1] | IC50 [4] [nM] | SI HepG2/D6 (selectivity index) [4] | Mice survived in host toxicity study (healthy mice) | Host toxicity (toxic / non-toxic) (healthy mice) | Parasitemia D21 (P. berghei (ANKA); 160 mg/kg/day p.o. days 3–5, day 21) [%] | Parasitemia D24 (P. berghei (ANKA); 160 mg/kg/day p.o. days 3–5) [%] | Parasitemia D28 (P. berghei (ANKA); 160 mg/kg/day p.o. days 3–5, day 28) [%] | Parasitemia D31 (P. berghei (ANKA); 160 mg/kg/day p.o. days 3–5, day 31 (end of study)) [%] | Mice Alive on Day 31 (P. berghei (ANKA); 160 mg/kg/day) | Mice Dead/Day Died (P. berghei (ANKA); 160 mg/kg/day)
1 | CCN(CC)CCCC(C)Nc1ccnc2cc(Cl)ccc12 (centres unmarked) [CQ, chloroquine, reference compound] | 595 | 206 | 5 | >31 | 5/5 | 15 |  |  |  |  |  |  |  |  |  |  | 
2 | c1ccc2sc(CNCCCNc3ccnc4ccccc34)cc2c1 [Compound 8] | 104 | 107 |  |  |  | 20 | 5.2 | 8870 | 440 |  |  |  |  |  |  |  | 
3 | c1ccc2sc(CNCCCCNc3ccnc4ccccc34)cc2c1 [Compound 9] | 191 | 205 |  |  |  | 14 | 13.6 | 4870 | 339 |  |  |  |  |  |  |  | 
4 | Fc1ccc2c(CNCCCNc3ccnc4ccccc34)csc2c1 [Compound 12] | 185 | 191 |  |  |  | 21 | 8.8 | 4480 | 211 |  |  |  |  |  |  |  | 
5 | Fc1ccc2scc(CNCCCCNc3ccnc4ccccc34)c2c1 [Compound 13] | 201 | 177 |  |  |  | 16 | 12.6 | 2730 | 172 |  |  |  |  |  |  |  | 
6 | Fc1ccc2scc(-c3ccc(CNCCCNc4ccnc5ccccc45)cc3)c2c1 [Compound 23] | 144 | 111 |  |  |  | 28 | 5.1 | 3820 | 136 |  |  |  |  |  |  |  | 
7 | Fc1ccc2scc(-c3ccc(CNCCCCCCNc4ccnc5ccccc45)cc3)c2c1 [Compound 24] | 277 | 242 |  |  |  | 60 | 4.6 | 2230 | 37 |  |  |  |  |  |  |  | 
8 | CC(CCCNCc1ccc(-c2csc3ccc(F)cc23)cc1)Nc1ccnc2cc(Cl)ccc12 (centres unmarked) [Compound 25] | 12 | 121 |  | 20.8 |  | 71 | 0.2 | 2090 | 29 | 5 | non-toxic | 2.7 | 52 | 72 | 79 | only one surviving 31 days but with parasitemia and 1/4 | 2/17 and 1/18
9 | CC(CCCNCc1ccc(-c2csc3ccc(F)cc23)cc1)Nc1ccnc2ccccc12 (centres unmarked) [Compound 26] | 55 | 45 |  |  |  | 36 | 1.5 | 2340 | 65 |  |  |  |  |  |  |  | 
10 | CC(CCCN(C)Cc1ccc(-c2csc3ccc(F)cc23)cc1)Nc1ccnc2ccccc12 (centres unmarked) [Compound 27] | 126 | 126 |  |  |  | 29 | 4.3 | 5000 | 173 |  |  |  |  |  |  |  | 
11 | N#Cc1ccc2scc(-c3ccc(CNCCCCNc4ccnc5ccccc45)cc3)c2c1 [Compound 28] | 188 | 129 |  |  |  | 6 | 31.3 | 2580 | 401 |  |  |  |  |  |  |  | 
12 | CC(CCCNCc1ccc(-c2csc3ccc(C#N)cc23)cc1)Nc1ccnc2ccccc12 (centres unmarked) [Compound 29] | 44 | 46 |  |  |  | 13 | 3.4 | 2410 | 192 |  |  |  |  |  |  |  | 
13 | N#Cc1ccc2scc(-c3ccc(CNCCCCCCNc4ccnc5ccccc45)cc3)c2c1 [Compound 30] | 81 | 51 |  |  |  | 12 | 6.8 | 1980 | 162 |  |  |  |  |  |  |  | 
14 | N#Cc1ccc2c(-c3ccc(CNCCCCNc4ccnc5ccccc45)cc3)csc2c1 [Compound 31] | 197 | 93 |  |  |  | 13 | 15.2 | 3580 | 276 |  |  |  |  |  |  |  | 
15 | N#Cc1ccc2c(-c3ccc(CNCCCCCCNc4ccnc5ccccc45)cc3)csc2c1 [Compound 32] | 102 | 29 |  |  |  | 55 | 1.8 | 2050 | 37 |  |  |  |  |  |  |  | 
16 | N#Cc1ccc(-c2ccc(-c3ccc(CNCCNc4ccnc5cc(Cl)ccc45)cc3)s2)cc1 [Compound 37] | 26 | 60 |  |  |  | 49 | 0.5 | > 30600 |  |  |  |  |  |  |  |  | 
17 | N#Cc1ccc(-c2ccc(-c3ccc(CNCCCNc4ccnc5cc(Cl)ccc45)cc3)s2)cc1 [Compound 38] | 20 | 43 |  |  |  | 84 | 0.2 | 2560 | 30 |  |  |  |  |  |  |  | 
18 | N#Cc1ccc(-c2ccc(-c3ccc(CNCCCCNc4ccnc5cc(Cl)ccc45)cc3)s2)cc1 [Compound 39] | 46 | 52 |  |  |  | 59 | 0.8 | > 5790 |  |  |  |  |  |  |  |  | 
19 | N#Cc1ccc(-c2ccc(-c3ccc(CNCCCCCNc4ccnc5cc(Cl)ccc45)cc3)s2)cc1 [Compound 40] | 41 | 54 |  |  |  | 80 | 0.5 | 6700 | 84 |  |  |  |  |  |  |  | 
20 | N#Cc1ccc(-c2ccc(-c3ccc(CNCCCCCCNc4ccnc5cc(Cl)ccc45)cc3)s2)cc1 [Compound 41] | 13 | 20 |  |  |  | 27 | 0.5 | 2420 | 89 |  |  |  |  |  |  |  | 
21 | N#Cc1ccc(-c2ccc(-c3ccc(CNCCCCCCCCNc4ccnc5cc(Cl)ccc45)cc3)s2)cc1 [Compound 42] | 12 | 30 |  | 18.6 | 0/5 | 55 | 0.2 | 2090 | 38 | 5 | non-toxic |  | 75 |  |  |  | 1/9 and 1/13 and 1/20 and 1/23 and 1/28
22 | N#Cc1ccc(-c2ccc(-c3ccc(CNCCCCNc4ccnc5ccccc45)cc3)s2)cc1 [Compound 43] | 106 | 34 |  |  |  | 4 | 26 | 8150 | 2038 |  |  |  |  |  |  |  | 
23 | N#Cc1ccc(-c2ccc(-c3ccc(CNCCCCCCNc4ccnc5ccccc45)cc3)s2)cc1 [Compound 44] | 74 | 54 |  |  |  | 101 | 0.7 | 4080 | 40 |  |  |  |  |  |  |  | 
24 | C#Cc1ccc(-c2ccc(-c3ccc(CNCCCCCCCCNc4ccnc5ccccc45)cc3)s2)cc1 [Compound 52] | 259 | 274 |  |  |  | 177 | 1.5 | 9230 | 52 |  |  |  |  |  |  |  | 
25 | OC(c1cc(C(F)(F)F)nc2c(C(F)(F)F)cccc12)C1CCCCN1 (centres unmarked) [MFQ, mefloquine, reference compound] | 7 | 55 |  |  |  | 23 | 0.3 |  |  |  |  |  |  |  |  |  | 
